Where two headings read alike, the source gives them in different places.
Tests used:
GSK3β = GSK3β (Homo sapiens, UniProt P49841); assay: GSK3β kinase assay (Caliper LabChip3000, fluoresceinated peptide substrate); type: biochemical
How it was run: (§1)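 Readout: electrophoretic resolution of phosphorylated from unphosphorylated peptide on a LabChip3000. Reactions incubated 20 h at room temperature before termination with 35 mM EDTA. Eleven-concentration curves gave IC50 via non-linear regression.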

GSK3α = GSK3α (Homo sapiens, UniProt P49840); assay: biochemical
How it was run: as §1

pTau = pTau assay (method not described); type: cell-based
[1] = first value of the cell, 250 pM enzyme, 20 uM ATP, 20 hours at room temperature, read-out: GSK3β/α (nM): GSK3β IC50
[2] = second value of the cell, 250 pM enzyme, 20 uM ATP, 20 hours at room temperature, read-out: GSK3β/α (nM): GSK3α IC50

GSK3β, sequence (P49841 whole entry, species assumed): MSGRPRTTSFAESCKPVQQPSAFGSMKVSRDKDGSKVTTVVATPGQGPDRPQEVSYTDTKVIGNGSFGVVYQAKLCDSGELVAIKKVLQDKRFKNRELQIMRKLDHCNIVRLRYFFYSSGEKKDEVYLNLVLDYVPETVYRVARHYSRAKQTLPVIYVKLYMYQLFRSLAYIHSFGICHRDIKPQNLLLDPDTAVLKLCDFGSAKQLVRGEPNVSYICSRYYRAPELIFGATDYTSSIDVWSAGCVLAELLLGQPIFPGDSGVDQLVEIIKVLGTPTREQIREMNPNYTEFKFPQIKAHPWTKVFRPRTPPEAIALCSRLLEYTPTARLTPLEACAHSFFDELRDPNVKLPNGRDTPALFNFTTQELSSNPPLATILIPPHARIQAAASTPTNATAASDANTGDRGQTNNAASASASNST
GSK3α, sequence (P49840 whole entry, species assumed): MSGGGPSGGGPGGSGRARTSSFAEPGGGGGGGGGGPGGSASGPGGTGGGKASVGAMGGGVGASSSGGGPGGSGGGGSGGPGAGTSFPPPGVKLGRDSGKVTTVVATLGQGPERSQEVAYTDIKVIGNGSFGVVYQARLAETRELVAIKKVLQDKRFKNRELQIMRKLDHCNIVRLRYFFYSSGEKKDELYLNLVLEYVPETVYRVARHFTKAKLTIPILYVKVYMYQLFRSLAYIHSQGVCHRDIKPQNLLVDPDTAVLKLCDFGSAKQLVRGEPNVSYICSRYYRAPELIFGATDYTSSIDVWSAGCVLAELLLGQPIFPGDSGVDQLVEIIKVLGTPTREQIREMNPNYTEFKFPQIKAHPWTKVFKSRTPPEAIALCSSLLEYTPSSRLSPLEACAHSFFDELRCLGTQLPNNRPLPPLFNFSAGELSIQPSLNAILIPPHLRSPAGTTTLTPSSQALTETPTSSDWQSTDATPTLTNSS

IC50 (GSK3β; [1]) | IC50 (GSK3α; [2]) | IC50 (pTau; read-out: pTau) | Compound | IC50 (GSK3β) | IC50 (GSK3α) | IC50 (pTau; read-out: pTau (nM))
800 nM | 170 nM | ≥ 10000 nM | Cc1cccc2sc(NC(=O)c3ccnc(NC(=O)C4CC4)c3)nc12 [Example 184, 2-(cyclopropanecarboxamido)-N-(4-methylbenzo[d]thiazol-2-yl)isonicotinamide] | – | – | –
2.7 nM | 1.2 nM | 210 nM | CC(C)C(=O)Nc1cc(C(=O)Nc2cnc(F)cc2OCC(F)F)ccn1 [Example 187, N-(4-(2,2-difluoroethoxy)-6-fluoropyridin-3-yl)-2-isobutyramidoisonicotinamide] | – | – | –
39 nM | 19 nM | 2200 nM | CC(C)C(=O)Nc1cc(C(=O)Nc2cnccc2OCCN2CCCC2)ccn1 [Example 188, 2-Isobutyramido-N-(4-(2-(pyrrolidin-1-yl)ethoxy)pyridin-3-yl)isonicotinamide] | – | – | –
0.08 nM | 0.12 nM | 12 nM | CCC1(c2cc(Cl)ncc2NC(=O)c2ccnc(NC(=O)C(C)C)c2)OCCO1 [Example 191, N-(6-chloro-4-(2-ethyl-1,3-dioxolan-2-yl)pyridin-3-yl)-2-isobutyramidoisonicotinamide] | – | – | –
3.8 nM | 1.4 nM | 140 nM | CC(C)C(=O)Nc1cc(C(=O)Nc2cncc(-c3cccc(F)c3F)c2)ccn1 [Example 194, N-(5-(2,3-difluorophenyl)pyridin-3-yl)-2-isobutyramidoisonicotinamide] | – | – | –
10 nM | 1.5 nM | 107 nM | CC(C)C(=O)Nc1cc(C(=O)Nc2cncc(-c3ccccc3Cl)c2)ccn1 [Example 195, N-(5-(2-chlorophenyl)pyridin-3-yl)-2-isobutyramidoisonicotinamide] | – | – | –
13 nM | 5.9 nM | 520 nM | CC(C)C(=O)Nc1cc(C(=O)Nc2cnccc2C(=O)c2ccccc2)ccn1 [Example 196, N-(4-benzoylpyridin-3-yl)-2-isobutyramidoisonicotinamide] | – | – | –
19 nM | 12 nM | 320 nM | CC(C)C(=O)Nc1cc(C(=O)Nc2cncc(C(O)c3ccccc3)c2)ccn1 (stereo not drawn) [Example 197, N-(5-(hydroxy(phenyl)methyl)pyridin-3-yl)-2-isobutyramidoisonicotinamide] | – | – | –
390 nM | 230 nM | 9900 nM | CC(C)C(=O)Nc1cc(C(=O)Nc2cnccc2C(F)(F)c2ccccc2)ccn1 [Example 198, N-(4-(difluoro(phenyl)methyl)pyridin-3-yl)-2-isobutyramidoisonicotinamide] | – | – | –
10 nM | 12 nM | 720 nM | CC(C)C(=O)Nc1cc(C(=O)Nc2cnccc2C(F)c2ccccc2)ccn1 (stereo not drawn) [Example 199, N-(4-(fluoro(phenyl)methyl)pyridin-3-yl)-2-isobutyramidoisonicotinamide] | – | – | –
6.1 nM | 4.7 nM | 510 nM | C=C(c1ccccc1)c1ccncc1NC(=O)c1ccnc(NC(=O)C(C)C)c1 [Example 200, 2-Isobutyramido-N-(4-(1-phenylvinyl)pyridine-3-yl)isonicotinamide] | – | – | –
1.1 nM | 0.4 nM | 26 nM | CC(C)C(=O)Nc1cc(C(=O)Nc2cnccc2OCC2(C)CC2)ccn1 [Example 201, 2-isobutyramido-N-(4-((1-methylcyclopropyl)methoxy)pyridin-3-yl)isonicotinamide] | – | – | –

Continued, compound first:

Compound | IC50 (GSK3β; [1]) | IC50 (GSK3α; [2]) | IC50 (pTau; read-out: pTau) | IC50 (GSK3β) | IC50 (GSK3α) | IC50 (pTau; read-out: pTau (nM))
O=C(Nc1cncc(-c2cccc(F)n2)c1)c1ccnc(NC(=O)C2CC2)c1 [Example 165, 2-(cyclopropanecarboxamido)-N-(6-fluoro-[2,3′-bipyridin]-5′-yl)isonicotinamide] | 3.8 nM | 1.3 nM | 125 nM | – | – | –
O=C(Nc1cncc(-c2ccnc(F)c2F)c1)c1ccnc(NC(=O)C2CC2)c1 [Example 166, 2-(cyclopropanecarboxamido)-N-(2′,3′-difluoro-[3,4′-bipyridin]-5-yl)isonicotinamide] | 44 nM | 11 nM | 360 nM | – | – | –
O=C(Nc1cnccc1-c1cc(Br)cc(Br)c1)c1ccnc(NC(=O)C2CC2)c1 [Example 167, 2-(cyclopropanecarboxamido)-N-(4-(3,5-dibromophenyl)pyridin-3-yl)isonicotinamide] | 20 nM | 9.3 nM | 5500 nM | – | – | –
O=C(Nc1cnccc1-c1ccc(Br)cc1)c1ccnc(NC(=O)C2CC2)c1 [Example 168, N-(4-(4-bromophenyl)pyridin-3-yl)-2-(cyclopropanecarboxamido)isonicotinamide] | 6.8 nM | 2.2 nM | 240 nM | – | – | –
O=C(Nc1cnccc1-c1ccc(I)cc1)c1ccnc(NC(=O)C2CC2)c1 [Example 169, 2-(cyclopropanecarboxamido)-N-(4-(4-iodophenyl)pyridin-3-yl)isonicotinamide] | 2.8 nM | 1.5 nM | 170 nM | – | – | –
O=C(Nc1cnccn1)c1ccnc(NC(=O)C2CC2)c1 [Example 170, 2-(Cyclopropanecarboxamido)-N-(pyrazin-2-yl)isonicotinamide] | 8.1 nM | 2.9 nM | 570 nM | – | – | –
CC(C)n1cc(NC(=O)c2ccnc(NC(=O)C3CC3)c2)cn1 [Example 171, 2-(cyclopropanecarboxamido)-N-(1-isopropyl-1H-pyrazol-4-yl)isonicotinamide] | 370 nM | 170 nM | 4000 nM | – | – | –
O=C(Nc1cnn(CC(F)(F)F)c1)c1ccnc(NC(=O)C2CC2)c1 [Example 172, 2-(cyclopropanecarboxamido)-N-(1-(2,2,2-trifluoroethyl)-1H-pyrazol-4-yl)isonicotinamide] | 35 nM | 14 nM | 700 nM | – | – | –
O=C(Nc1cncs1)c1ccnc(NC(=O)C2CC2)c1 [Example 173, 2-(cyclopropanecarboxamido)-N-(thiazol-5-yl)isonicotinamide] | 18 nM | 14 nM | 2500 nM | – | – | –
Cc1c(NC(=O)c2ccnc(NC(=O)C3CC3)c2)cnn1C [Example 175, 2-(cyclopropanecarboxamido)-N-(1,5-dimethyl-1H-pyrazol-4-yl)isonicotinamide] | 68 nM | 33 nM | 3700 nM | – | – | –
O=C(Nc1cncnc1)c1ccnc(NC(=O)C2CC2)c1 [Example 178, 2-(Cyclopropanecarboxamido)-N-(pyrimidin-5-yl)isonicotinamide] | 14 nM | 12 nM | 1200 nM | – | – | –
O=C(Nc1cncnc1N1CCC(F)(F)CC1)c1ccnc(NC(=O)C2CC2)c1 [Example 179, 2-(Cyclopropanecarboxamido)-N-(4-(4,4-difluoropiperidin-1-yl)pyrimidin-5-yl)isonicotinamide] | 160 nM | 40 nM | 3000 nM | – | – | –
O=C(Nc1cncc(-c2ccccc2F)n1)c1ccnc(NC(=O)C2CC2)c1 [Example 180, 2-(Cyclopropanecarboxamido)-N-(6-(2-fluorophenyl)pyrazin-2-yl)isonicotinamide] | 6.2 nM | 1.2 nM | 190 nM | – | – | –
O=C(Nc1nc2cnccc2s1)c1ccnc(NC(=O)C2CC2)c1 [Example 182, 2-(cyclopropanecarboxamido)-N-(thiazolo[4,5-c]pyridin-2-yl)isonicotinamide] | 1300 nM | 470 nM | ≥ 10000 nM | – | – | –
NC(=O)c1cnc(NC(=O)c2ccnc(NC(=O)C3CC3)c2)s1 [Example 183, 2-(2-(cyclopropanecarboxamido)isonicotinamido)thiazole-5-carboxamide] | 530 nM | 200 nM | ≥ 10000 nM | – | – | –
CC(C)C(=O)Nc1cc(C(=O)Nc2cnccc2-c2ccccc2)ccn1 [Example 185, 2-Isobutyramido-N-(4-phenylpyridin-3-yl)isonicotinamide] | – | 4.2 nM | 180 nM | 1.4 nM | – | –
CC(C)C(=O)Nc1cc(C(=O)Nc2cnccc2-c2ccc(Cl)cc2)ccn1 [Example 186, N-(4-(4-chlorophenyl)pyridin-3-yl)-2-isobutyramidoisonicotinamide] | – | 6.5 nM | 360 nM | 20 nM | – | –
CC(C)C(=O)Nc1cc(C(=O)Nc2cnccc2OCCN2CCOCC2)ccn1 [Example 189, 2-Isobutyramido-N-(4-(2-morpholinoethoxy)pyridin-3-yl)isonicotinamide] | – | 1.1 nM | 99 nM | 2.3 nM | – | –
CC(C)C(=O)Nc1cc(C(=O)Nc2cnccc2OCCC(C)(C)O)ccn1 [Example 190, N-(4-(3-hydroxy-3-methylbutoxy)pyridin-3-yl)-2-isobutyramidoisonicotinamide] | – | – | – | 3.3 nM | 1.4 nM | 19 nM
CC(C)C(=O)Nc1cc(C(=O)Nc2cncc(-c3cc(F)ccc3F)c2)ccn1 [Example 192, N-(5-(2,5-difluorophenyl)pyridin-3-yl)-2-isobutyramidoisonicotinamide] | – | 1.4 nM | 94 nM | 4.6 nM | – | –
CC(C)C(=O)Nc1cc(C(=O)Nc2cncc(-c3ccccc3F)c2)ccn1 [Example 193, N-(5-(2-fluorophenyl)pyridin-3-yl)-2-isobutyramidoisonicotinamide] | – | 2.2 nM | 85 nM | 5.6 nM | – | –
CC(C)C(=O)Nc1cc(C(=O)Nc2cnccc2OCC(C)(F)F)ccn1 [Example 202, N-(4-(2,2-Difluoropropoxy)pyridin-3-yl)-2-isobutyramidoisonicotinamide] | – | – | – | 1 nM | 0.46 nM | 50 nM
CC(C)C(=O)Nc1cc(C(=O)Nc2cnccc2OCC(F)(F)F)ccn1 [Example 203, 2-Isobutyramido-N-(4-(2,2,2-trifluoroethoxy)pyridin-3-yl)isonicotinamide] | – | 0.35 nM | 70 nM | 0.72 nM | – | –
